From publication PMC4685510, “A Cell Biologist’s Field Guide to Aurora Kinase Inhibitors” (Frontiers in Oncology, 2015)
Like-named read-outs stand apart in the source and are kept apart here.

Tests used:
Assay in all cases: biochemical
Assay type in all cases: biochemical
[1] = molecular target: 363 human kinases (including Aurora A/B/C) (Homo sapiens, UniProt O00506); settings: STK25/YSK1; for remaining activity at 0.1 µM: 100 nM; for remaining activity at 0.1 µM / remaining activity at 0.5 µM: read-out: % Enzyme Activity (relative to DMSO controls)
From the text: (§1) However, the Aurora A/B selectivity ratios derived from our in vitro and in vivo data can be compared to prioritize inhibitors.

[2] = molecular target: T1, 363 human kinases (including Aurora A/B/C) (Homo sapiens, UniProt O14920); settings: IKKb/IKBKB; for remaining activity at 0.1 µM: 100 nM; for remaining activity at 0.1 µM / remaining activity at 0.5 µM: read-out: % Enzyme Activity (relative to DMSO controls)
T1 sequence (O14920 1-756): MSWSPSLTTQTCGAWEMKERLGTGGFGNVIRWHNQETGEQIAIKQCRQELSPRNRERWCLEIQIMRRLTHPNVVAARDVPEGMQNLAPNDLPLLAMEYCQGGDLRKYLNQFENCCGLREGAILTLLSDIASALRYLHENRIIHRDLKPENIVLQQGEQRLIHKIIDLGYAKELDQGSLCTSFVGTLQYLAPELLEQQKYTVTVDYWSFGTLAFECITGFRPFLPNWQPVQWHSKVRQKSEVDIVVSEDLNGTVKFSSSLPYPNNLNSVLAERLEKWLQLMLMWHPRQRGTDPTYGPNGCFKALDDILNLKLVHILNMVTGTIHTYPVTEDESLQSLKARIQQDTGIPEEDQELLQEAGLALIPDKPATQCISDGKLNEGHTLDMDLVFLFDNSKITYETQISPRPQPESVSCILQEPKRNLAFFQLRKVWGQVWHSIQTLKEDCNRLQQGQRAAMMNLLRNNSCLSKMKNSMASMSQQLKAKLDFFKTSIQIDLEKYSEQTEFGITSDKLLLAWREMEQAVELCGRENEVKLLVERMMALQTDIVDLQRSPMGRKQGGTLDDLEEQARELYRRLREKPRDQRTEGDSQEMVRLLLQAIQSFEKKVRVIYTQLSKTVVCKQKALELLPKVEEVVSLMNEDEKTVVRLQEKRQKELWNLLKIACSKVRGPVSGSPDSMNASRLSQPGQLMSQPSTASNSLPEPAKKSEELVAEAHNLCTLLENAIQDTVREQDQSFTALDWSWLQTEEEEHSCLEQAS
From the text: as §1

[3] = molecular target: 363 human kinases (including Aurora A/B/C) (Homo sapiens, UniProt O95819); settings: HGK/MAP4K4; for remaining activity at 0.1 µM: 100 nM; for remaining activity at 0.1 µM / remaining activity at 0.5 µM: read-out: % Enzyme Activity (relative to DMSO controls)
From the text: as §1

[4] = molecular target: 363 human kinases (including Aurora A/B/C) (Homo sapiens, UniProt P08631); settings: HCK; for remaining activity at 0.1 µM: 100 nM; for remaining activity at 0.1 µM / remaining activity at 0.5 µM: read-out: % Enzyme Activity (relative to DMSO controls)
From the text: as §1

[5] = molecular target: 363 human kinases (including Aurora A/B/C) (Homo sapiens, UniProt P11362); settings: for remaining activity at 0.1 µM / remaining activity at 0.5 µM: read-out: % Enzyme Activity (relative to DMSO controls)
From the text: as §1

[6] = molecular target: 363 human kinases (including Aurora A/B/C) (Homo sapiens, UniProt P11802); settings: for remaining activity at 0.1 µM: 100 nM; for remaining activity at 0.1 µM / remaining activity at 0.5 µM: read-out: % Enzyme Activity (relative to DMSO controls); for remaining activity at 0.5 µM / % Enzyme Activity (relative to DMSO controls): 500 nM
From the text: as §1

[7] = molecular target: 363 human kinases (including Aurora A/B/C) (Homo sapiens, UniProt P21802); settings: FGFR2, [ATP] 5 µM; for remaining activity at 0.1 µM: 100 nM; for remaining activity at 0.1 µM / remaining activity at 0.5 µM: read-out: % Enzyme Activity (relative to DMSO controls)
From the text: as §1

[8] = molecular target: 363 human kinases (including Aurora A/B/C) (Homo sapiens, UniProt P27361); settings: ERK1, [ATP] 100 µM; for remaining activity at 0.1 µM: 100 nM; for remaining activity at 0.1 µM / remaining activity at 0.5 µM: read-out: % Enzyme Activity (relative to DMSO controls)
From the text: as §1

[9] = molecular target: 363 human kinases (including Aurora A/B/C) (Homo sapiens, UniProt P29597); settings: TYK2; for remaining activity at 0.1 µM: 100 nM; for remaining activity at 0.1 µM / remaining activity at 0.5 µM: read-out: % Enzyme Activity (relative to DMSO controls)
From the text: as §1

[10] = molecular target: T2, 363 human kinases (including Aurora A/B/C) (Homo sapiens, UniProt P42681); settings: TXK; for remaining activity at 0.1 µM: 100 nM; for remaining activity at 0.1 µM / remaining activity at 0.5 µM: read-out: % Enzyme Activity (relative to DMSO controls)
T2 sequence (P42681 1-527): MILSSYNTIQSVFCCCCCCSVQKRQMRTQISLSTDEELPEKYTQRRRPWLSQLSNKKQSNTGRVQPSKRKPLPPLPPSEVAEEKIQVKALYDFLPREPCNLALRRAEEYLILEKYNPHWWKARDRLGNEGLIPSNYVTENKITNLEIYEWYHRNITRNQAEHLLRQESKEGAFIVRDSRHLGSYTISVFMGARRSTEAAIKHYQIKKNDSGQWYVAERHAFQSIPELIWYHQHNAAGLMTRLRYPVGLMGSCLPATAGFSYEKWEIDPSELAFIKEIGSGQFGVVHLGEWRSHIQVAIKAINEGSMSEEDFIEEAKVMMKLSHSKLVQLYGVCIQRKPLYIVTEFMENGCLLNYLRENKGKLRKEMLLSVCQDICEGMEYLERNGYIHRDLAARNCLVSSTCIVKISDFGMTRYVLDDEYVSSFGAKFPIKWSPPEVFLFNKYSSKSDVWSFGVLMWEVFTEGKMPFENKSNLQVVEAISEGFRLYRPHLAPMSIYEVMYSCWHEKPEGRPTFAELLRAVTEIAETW
From the text: as §1

[11] = molecular target: 363 human kinases (including Aurora A/B/C) (Homo sapiens, UniProt P42684); settings: ABL2/ARG, [ATP] 30 µM; for remaining activity at 0.1 µM: 100 nM; for remaining activity at 0.1 µM / remaining activity at 0.5 µM: read-out: % Enzyme Activity (relative to DMSO controls)
From the text: as §1

[12] = molecular target: 363 human kinases (including Aurora A/B/C) (Homo sapiens, UniProt Q13557); settings: CAMK2d, [ATP] 30 µM; for remaining activity at 0.1 µM: 100 nM; for remaining activity at 0.1 µM / remaining activity at 0.5 µM: read-out: % Enzyme Activity (relative to DMSO controls)
From the text: as §1

[13] = molecular target: 363 human kinases (including Aurora A/B/C) (Homo sapiens, UniProt Q9BYP7); settings: WNK3; for remaining activity at 0.1 µM: 100 nM; for remaining activity at 0.1 µM / remaining activity at 0.5 µM: read-out: % Enzyme Activity (relative to DMSO controls)
From the text: as §1

[14] = molecular target: 363 human kinases (including Aurora A/B/C) (Homo sapiens, UniProt Q9NYL2); settings: ZAK/MLTK; for remaining activity at 0.1 µM: 100 nM; for remaining activity at 0.1 µM / remaining activity at 0.5 µM: read-out: % Enzyme Activity (relative to DMSO controls)
Chain of 363 human kinases (including Aurora A/B/C) (Homo sapiens, UniProt Q9NYL2) (Q9NYL2 whole entry): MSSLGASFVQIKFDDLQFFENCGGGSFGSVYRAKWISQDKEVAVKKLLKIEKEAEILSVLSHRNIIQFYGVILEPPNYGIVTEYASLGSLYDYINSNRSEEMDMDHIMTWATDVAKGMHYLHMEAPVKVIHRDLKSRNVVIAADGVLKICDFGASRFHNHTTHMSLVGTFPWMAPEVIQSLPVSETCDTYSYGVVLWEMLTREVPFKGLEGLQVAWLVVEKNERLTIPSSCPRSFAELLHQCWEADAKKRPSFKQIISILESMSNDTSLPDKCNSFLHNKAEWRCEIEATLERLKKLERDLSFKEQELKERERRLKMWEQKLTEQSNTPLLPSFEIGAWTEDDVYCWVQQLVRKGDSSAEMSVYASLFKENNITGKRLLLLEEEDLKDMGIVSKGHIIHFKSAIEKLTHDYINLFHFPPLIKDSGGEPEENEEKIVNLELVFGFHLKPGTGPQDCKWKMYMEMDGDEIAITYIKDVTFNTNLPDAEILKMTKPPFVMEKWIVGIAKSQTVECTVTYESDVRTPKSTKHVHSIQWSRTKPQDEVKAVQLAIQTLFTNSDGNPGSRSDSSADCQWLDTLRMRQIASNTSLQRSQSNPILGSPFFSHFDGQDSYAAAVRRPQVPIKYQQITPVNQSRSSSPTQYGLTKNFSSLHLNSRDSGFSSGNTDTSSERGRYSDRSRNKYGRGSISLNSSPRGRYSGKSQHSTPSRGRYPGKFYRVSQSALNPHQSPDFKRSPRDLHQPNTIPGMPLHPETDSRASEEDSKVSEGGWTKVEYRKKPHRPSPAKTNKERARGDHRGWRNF
From the text: as §1

Chain of 363 human kinases (including Aurora A/B/C) (Homo sapiens, UniProt P11802) (P11802 whole entry): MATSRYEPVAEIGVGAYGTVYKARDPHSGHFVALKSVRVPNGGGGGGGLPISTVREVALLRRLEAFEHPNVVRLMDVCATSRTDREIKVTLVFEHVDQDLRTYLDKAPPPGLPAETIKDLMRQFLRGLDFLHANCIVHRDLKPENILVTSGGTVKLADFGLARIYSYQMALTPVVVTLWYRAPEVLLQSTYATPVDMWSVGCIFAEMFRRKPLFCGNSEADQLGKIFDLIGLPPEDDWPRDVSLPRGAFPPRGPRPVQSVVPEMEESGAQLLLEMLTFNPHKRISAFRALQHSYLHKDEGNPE
Chain of 363 human kinases (including Aurora A/B/C) (Homo sapiens, UniProt Q13557) (Q13557 whole entry): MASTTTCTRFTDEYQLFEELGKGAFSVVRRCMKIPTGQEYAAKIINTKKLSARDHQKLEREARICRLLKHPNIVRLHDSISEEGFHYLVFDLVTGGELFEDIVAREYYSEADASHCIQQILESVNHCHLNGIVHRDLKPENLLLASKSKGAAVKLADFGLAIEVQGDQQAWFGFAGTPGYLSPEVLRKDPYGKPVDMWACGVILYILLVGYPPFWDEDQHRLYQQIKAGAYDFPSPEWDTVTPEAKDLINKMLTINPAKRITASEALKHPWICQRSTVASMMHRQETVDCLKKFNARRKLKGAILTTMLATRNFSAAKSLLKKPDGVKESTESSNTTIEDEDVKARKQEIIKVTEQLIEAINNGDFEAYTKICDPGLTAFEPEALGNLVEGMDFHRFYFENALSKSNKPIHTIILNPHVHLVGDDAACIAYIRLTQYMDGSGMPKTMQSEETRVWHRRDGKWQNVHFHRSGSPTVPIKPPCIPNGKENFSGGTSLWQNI
Chain of 363 human kinases (including Aurora A/B/C) (Homo sapiens, UniProt P11362) (P11362 22-822): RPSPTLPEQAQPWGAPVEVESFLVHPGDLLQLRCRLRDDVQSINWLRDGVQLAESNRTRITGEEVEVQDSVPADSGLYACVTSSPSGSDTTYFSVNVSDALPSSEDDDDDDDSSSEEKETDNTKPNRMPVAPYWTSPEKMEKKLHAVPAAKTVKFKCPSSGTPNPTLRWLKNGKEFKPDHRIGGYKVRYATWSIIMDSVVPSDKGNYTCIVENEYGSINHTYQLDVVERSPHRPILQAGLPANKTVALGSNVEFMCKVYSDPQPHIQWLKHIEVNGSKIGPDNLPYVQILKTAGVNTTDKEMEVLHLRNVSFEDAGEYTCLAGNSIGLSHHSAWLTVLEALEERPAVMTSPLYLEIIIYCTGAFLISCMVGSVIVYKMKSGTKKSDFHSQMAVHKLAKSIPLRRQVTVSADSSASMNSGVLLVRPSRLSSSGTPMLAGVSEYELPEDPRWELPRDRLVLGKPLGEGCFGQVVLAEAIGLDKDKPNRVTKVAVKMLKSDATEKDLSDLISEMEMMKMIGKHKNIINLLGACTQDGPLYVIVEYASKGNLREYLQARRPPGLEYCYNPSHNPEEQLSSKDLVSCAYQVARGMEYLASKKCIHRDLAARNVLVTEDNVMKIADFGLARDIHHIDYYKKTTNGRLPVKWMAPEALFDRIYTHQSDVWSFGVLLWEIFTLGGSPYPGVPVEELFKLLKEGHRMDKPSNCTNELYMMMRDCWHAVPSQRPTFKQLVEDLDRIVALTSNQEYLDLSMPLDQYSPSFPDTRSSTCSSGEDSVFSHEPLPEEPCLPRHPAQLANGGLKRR
Chain of 363 human kinases (including Aurora A/B/C) (Homo sapiens, UniProt P21802) (P21802 22-821): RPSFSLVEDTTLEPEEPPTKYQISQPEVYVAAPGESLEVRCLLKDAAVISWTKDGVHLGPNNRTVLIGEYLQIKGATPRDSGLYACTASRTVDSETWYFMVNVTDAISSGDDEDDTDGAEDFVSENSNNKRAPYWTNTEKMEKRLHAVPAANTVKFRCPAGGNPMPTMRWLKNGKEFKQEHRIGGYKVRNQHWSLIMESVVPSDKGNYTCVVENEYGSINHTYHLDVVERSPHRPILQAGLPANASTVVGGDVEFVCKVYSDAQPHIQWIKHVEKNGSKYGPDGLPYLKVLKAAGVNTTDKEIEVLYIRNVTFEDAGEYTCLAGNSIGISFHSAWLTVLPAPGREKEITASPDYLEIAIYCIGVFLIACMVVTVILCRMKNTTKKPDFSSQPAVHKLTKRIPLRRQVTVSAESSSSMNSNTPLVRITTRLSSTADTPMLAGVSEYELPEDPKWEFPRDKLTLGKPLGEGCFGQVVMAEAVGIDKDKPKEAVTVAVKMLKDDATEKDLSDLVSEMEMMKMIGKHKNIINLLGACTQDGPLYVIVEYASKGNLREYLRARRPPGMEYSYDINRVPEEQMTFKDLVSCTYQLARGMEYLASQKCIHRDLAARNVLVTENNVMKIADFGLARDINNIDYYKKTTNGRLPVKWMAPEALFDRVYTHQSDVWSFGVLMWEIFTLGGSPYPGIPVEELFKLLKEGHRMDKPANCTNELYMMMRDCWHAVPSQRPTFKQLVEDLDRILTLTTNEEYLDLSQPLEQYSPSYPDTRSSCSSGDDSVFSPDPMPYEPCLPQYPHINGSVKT
Chain of 363 human kinases (including Aurora A/B/C) (Homo sapiens, UniProt O00506) (O00506 whole entry): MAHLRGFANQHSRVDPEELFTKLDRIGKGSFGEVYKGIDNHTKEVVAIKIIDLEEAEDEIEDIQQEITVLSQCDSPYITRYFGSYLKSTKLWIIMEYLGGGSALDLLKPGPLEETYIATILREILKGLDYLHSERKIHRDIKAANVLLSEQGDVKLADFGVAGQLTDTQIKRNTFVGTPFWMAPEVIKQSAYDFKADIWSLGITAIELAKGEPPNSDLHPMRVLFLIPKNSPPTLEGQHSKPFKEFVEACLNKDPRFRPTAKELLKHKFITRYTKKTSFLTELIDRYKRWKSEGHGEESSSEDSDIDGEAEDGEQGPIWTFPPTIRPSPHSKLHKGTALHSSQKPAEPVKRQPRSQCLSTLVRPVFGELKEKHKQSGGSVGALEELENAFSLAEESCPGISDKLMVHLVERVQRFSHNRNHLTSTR
Chain of 363 human kinases (including Aurora A/B/C) (Homo sapiens, UniProt O95819) (O95819 whole entry): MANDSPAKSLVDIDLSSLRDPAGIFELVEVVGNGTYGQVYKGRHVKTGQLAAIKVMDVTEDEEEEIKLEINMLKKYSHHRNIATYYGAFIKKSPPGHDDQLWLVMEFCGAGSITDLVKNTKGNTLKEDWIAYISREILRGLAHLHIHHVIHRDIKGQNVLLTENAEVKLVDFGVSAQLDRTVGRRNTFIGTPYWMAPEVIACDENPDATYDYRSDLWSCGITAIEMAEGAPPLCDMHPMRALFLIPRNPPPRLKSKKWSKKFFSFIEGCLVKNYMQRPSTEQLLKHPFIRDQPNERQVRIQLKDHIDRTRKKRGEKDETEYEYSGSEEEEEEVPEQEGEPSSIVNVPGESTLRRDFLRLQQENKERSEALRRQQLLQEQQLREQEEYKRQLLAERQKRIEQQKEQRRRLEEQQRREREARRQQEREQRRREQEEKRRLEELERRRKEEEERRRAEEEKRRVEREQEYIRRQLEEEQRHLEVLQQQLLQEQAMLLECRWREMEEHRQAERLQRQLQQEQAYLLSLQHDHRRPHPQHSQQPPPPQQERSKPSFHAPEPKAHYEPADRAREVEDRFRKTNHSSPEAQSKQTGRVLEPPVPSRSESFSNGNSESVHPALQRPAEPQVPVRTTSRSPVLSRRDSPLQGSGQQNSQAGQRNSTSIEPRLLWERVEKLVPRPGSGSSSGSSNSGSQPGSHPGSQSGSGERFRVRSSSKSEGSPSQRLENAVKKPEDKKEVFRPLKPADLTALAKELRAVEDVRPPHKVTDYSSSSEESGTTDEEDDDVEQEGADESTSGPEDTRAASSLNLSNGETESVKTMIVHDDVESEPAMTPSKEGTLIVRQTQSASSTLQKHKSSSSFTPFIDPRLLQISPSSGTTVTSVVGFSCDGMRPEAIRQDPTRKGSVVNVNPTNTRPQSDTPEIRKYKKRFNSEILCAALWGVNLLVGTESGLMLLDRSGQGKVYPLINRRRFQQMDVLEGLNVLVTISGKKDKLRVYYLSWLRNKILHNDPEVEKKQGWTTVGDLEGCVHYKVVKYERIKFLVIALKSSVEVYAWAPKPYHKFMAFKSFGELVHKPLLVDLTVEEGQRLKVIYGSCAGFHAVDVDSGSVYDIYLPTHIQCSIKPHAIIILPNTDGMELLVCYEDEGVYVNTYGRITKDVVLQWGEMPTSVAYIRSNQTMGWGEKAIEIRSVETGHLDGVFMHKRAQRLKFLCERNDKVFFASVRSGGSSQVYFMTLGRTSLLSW

`CCn1cc(-c2ccnc3[nH]c(-c4cccc(CN(C)C)c4)cc23)c(-c2ccc(NC(=O)N(C)C)cc2)n1` [GSK1070916] showed a remaining activity at 0.1 µM [1] of 98.9%, a remaining activity at 0.1 µM [2] of 126% and a remaining activity at 0.1 µM [3] of 87.5%. The remaining activity at 0.1 µM [4] was 102%, the remaining activity at 0.1 µM [5] was 60.2% and the remaining activity at 0.1 µM ([6]; CDK4/cyclin D1, [ATP] 30 µM) was 97.5%. It also gave a remaining activity at 0.1 µM ([6]; CDK4/cyclin D3, [ATP] 15 µM) of 95.6%, a remaining activity at 0.1 µM [7] of 43.3% and a remaining activity at 0.1 µM [8] of 109%. It also gave a remaining activity at 0.1 µM [9] of 87%, a remaining activity at 0.1 µM [10] of 86.3% and a remaining activity at 0.1 µM [11] of 94.2%. It also gave a remaining activity at 0.1 µM [12] of 94.6%, a remaining activity at 0.1 µM [13] of 110% and a remaining activity at 0.1 µM [14] of 101%.
Work on `O=C(O)[C@]1(Cc2cccc(Nc3nccs3)n2)CC[C@@H](Oc2cccc(Cl)c2F)CC1` [MK-5108] yielded a remaining activity at 0.1 µM [1] of 104%, a remaining activity at 0.5 µM ([1]; 500 nM) of 113% and a remaining activity at 0.1 µM [2] of 103%. It also gave a remaining activity at 0.5 µM ([2]; 500 nM) of 128%, a remaining activity at 0.1 µM [3] of 95.5% and a remaining activity at 0.5 µM ([3]; 500 nM) of 72.9%. For the same molecule, the remaining activity at 0.1 µM [4] was 46.1%, the remaining activity at 0.5 µM ([4]; 500 nM) was 20.2% and the remaining activity at 0.1 µM ([5]; FGFR1, [ATP] 5 µM, 100 nM) was 61.8%. For the same molecule, the remaining activity at 0.5 µM ([5]; FGFR1, [ATP] 5 µM, 500 nM) was 30.8%, the remaining activity at 0.1 µM ([6]; CDK4/cyclin D1, [ATP] 30 µM) was 96.4% and the remaining activity at 0.5 µM ([6]; CDK4/cyclin D1, [ATP] 30 µM) was 96.1%. The remaining activity at 0.1 µM ([6]; CDK4/cyclin D3, [ATP] 15 µM) was 99%, the remaining activity at 0.5 µM ([6]; CDK4/cyclin D3, [ATP] 15 µM) was 98.8% and the remaining activity at 0.1 µM [7] was 39.7%. For the same molecule, the remaining activity at 0.5 µM ([7]; 500 nM) was 11.2%, the remaining activity at 0.1 µM [8] was 88.9% and the remaining activity at 0.5 µM ([8]; 500 nM) was 107%. It also gave a remaining activity at 0.1 µM [9] of 52.3%, a remaining activity at 0.5 µM ([9]; 500 nM) of 17% and a remaining activity at 0.1 µM [10] of 35.6%. The remaining activity at 0.5 µM ([10]; 500 nM) was 10.5%, the remaining activity at 0.1 µM [11] was 12.2% and the remaining activity at 0.5 µM ([11]; 500 nM) was 2.32%. The remaining activity at 0.1 µM [12] was 101%, the remaining activity at 0.5 µM ([12]; 500 nM) was 98.6% and the remaining activity at 0.1 µM [13] was 91.9%. The remaining activity at 0.5 µM ([13]; 500 nM) was 63.4%, the remaining activity at 0.1 µM [14] was 126% and the remaining activity at 0.5 µM ([14]; 500 nM) was 97.9%.
For `O=C(c1cccc(Cl)c1F)N1CCN(Cc2cccc(Nc3nccs3)n2)CC1` [MK-8745], the “% Enzyme Activity (relative to DMSO controls)” value ([1]; 500 nM) was 99.16%, the remaining activity at 0.5 µM ([1]; 500 nM) was 100% and the “% Enzyme Activity (relative to DMSO controls)” value ([2]; 500 nM) was 112.10%. The remaining activity at 0.5 µM ([2]; 500 nM) was 119%, the “% Enzyme Activity (relative to DMSO controls)” value ([3]; 500 nM) was 88.10% and the remaining activity at 0.5 µM ([3]; 500 nM) was 89.1%. The “% Enzyme Activity (relative to DMSO controls)” value ([4]; 500 nM) was 52.42%, the remaining activity at 0.5 µM ([4]; 500 nM) was 53.9% and the “% Enzyme Activity (relative to DMSO controls)” value ([5]; FGFR1, [ATP] 5 µM, 500 nM) was 93.82%. The remaining activity at 0.5 µM ([5]; FGFR1, [ATP] 5 µM, 500 nM) was 97.1%, the “% Enzyme Activity (relative to DMSO controls)” value ([6]; CDK4/cyclin D1, [ATP] 30 µM) was 96.49% and the remaining activity at 0.5 µM ([6]; CDK4/cyclin D1, [ATP] 30 µM) was 97.2%. The “% Enzyme Activity (relative to DMSO controls)” value ([6]; CDK4/cyclin D3, [ATP] 15 µM) was 93.01%, the remaining activity at 0.5 µM ([6]; CDK4/cyclin D3, [ATP] 15 µM) was 93.1% and the “% Enzyme Activity (relative to DMSO controls)” value ([7]; 500 nM) was 90.67%. The remaining activity at 0.5 µM ([7]; 500 nM) was 92%, the “% Enzyme Activity (relative to DMSO controls)” value ([8]; 500 nM) was 100.59% and the remaining activity at 0.5 µM ([8]; 500 nM) was 102%. For the same molecule, the “% Enzyme Activity (relative to DMSO controls)” value ([9]; 500 nM) was 67.55%, the remaining activity at 0.5 µM ([9]; 500 nM) was 67.8% and the “% Enzyme Activity (relative to DMSO controls)” value ([10]; 500 nM) was 80.24%. For the same molecule, the remaining activity at 0.5 µM ([10]; 500 nM) was 80.3%, the “% Enzyme Activity (relative to DMSO controls)” value ([11]; 500 nM) was 85.19% and the remaining activity at 0.5 µM ([11]; 500 nM) was 85.8%. The “% Enzyme Activity (relative to DMSO controls)” value ([12]; 500 nM) was 97.95%, the remaining activity at 0.5 µM ([12]; 500 nM) was 98.5% and the “% Enzyme Activity (relative to DMSO controls)” value ([13]; 500 nM) was 106.70%. For the same molecule, the remaining activity at 0.5 µM ([13]; 500 nM) was 108%, the “% Enzyme Activity (relative to DMSO controls)” value ([14]; 500 nM) was 91.42% and the remaining activity at 0.5 µM ([14]; 500 nM) was 91.9%.
